Activity calls are given as the source filed them. The calls are words filed in the database; no cut-off is given here.

The target of one assay is Tyrosyl-DNA phosphodiesterase 1 (Homo sapiens) (UniProt Q9NUW8). The assay can be described thus: Ratio of IC50 of test compound to IC50 of NSC88915 for human Tdp1 assessed as blockade of enzyme-mediated hydrolysis of phosphodiester linkage between tyrosine and 3^-end of N14Y DNA substrate by SDS-PAGE electrophoresis.
Sequence of Tyrosyl-DNA phosphodiesterase 1 (Homo sapiens) (Q9NUW8 whole entry): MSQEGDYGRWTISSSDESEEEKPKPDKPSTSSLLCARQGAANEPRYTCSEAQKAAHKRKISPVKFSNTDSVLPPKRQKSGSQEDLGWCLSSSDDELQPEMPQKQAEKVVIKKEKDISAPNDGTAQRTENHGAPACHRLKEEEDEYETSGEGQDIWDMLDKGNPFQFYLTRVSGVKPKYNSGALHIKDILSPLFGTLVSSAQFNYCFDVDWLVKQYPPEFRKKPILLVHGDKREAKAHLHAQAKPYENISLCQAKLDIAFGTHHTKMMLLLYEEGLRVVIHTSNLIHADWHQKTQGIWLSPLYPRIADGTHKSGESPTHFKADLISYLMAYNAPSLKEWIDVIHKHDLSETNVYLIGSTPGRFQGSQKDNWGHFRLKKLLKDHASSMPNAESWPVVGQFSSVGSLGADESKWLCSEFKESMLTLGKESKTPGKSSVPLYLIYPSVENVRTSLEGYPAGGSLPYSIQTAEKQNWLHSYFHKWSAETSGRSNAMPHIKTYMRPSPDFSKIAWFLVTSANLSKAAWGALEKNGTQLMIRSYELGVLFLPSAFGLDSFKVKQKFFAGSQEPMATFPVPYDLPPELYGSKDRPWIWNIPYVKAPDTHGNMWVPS
On to `C[C@]12CC[C@H]3[C@@H](CCC4=CC(=O)CC[C@@]43C)[C@@H]1CC[C@@H]2C(=O)COS(=O)(=O)c1ccccc1`, for which the Ratio IC50 is less than 3.
In the case of `C[C@]12CC[C@H]3[C@@H](CCC4=CC(=O)CC[C@@]43C)[C@@H]1CC[C@@H]2C(=O)COS(=O)(=O)c1ccc([N+](=O)[O-])cc1`, the Ratio IC50 is less than 3.
On the same count and under the same terms, then `Cc1ccc(S(=O)(=O)OCC(=O)[C@H]2CC[C@H]3[C@@H]4CCC5=CC(=O)CC[C@]5(C)[C@H]4CC[C@]23C)cc1`, with less than 3.
Regarding `C[C@]12CC[C@H]3[C@@H](CCC4=CC(=O)CC[C@@]43C)[C@@H]1CC[C@@H]2C(=O)COS(=O)(=O)c1ccc(Cl)cc1`, the Ratio IC50 was less than 3.
Same read-out and setting: then `C[C@]12CC[C@H]3[C@@H](CCC4=CC(=O)CC[C@@]43C)[C@@H]1CC[C@@H]2C(=O)COS(=O)(=O)c1ccc(F)cc1`, with less than 3.

For another assay, the target named is DNA repair nuclease/redox regulator APEX1 (Homo sapiens) (UniProt P27695). As to the kind of experiment: Inhibition of human APE1 up to 100 uM.
Sequence of DNA repair nuclease/redox regulator APEX1 (Homo sapiens) (P27695 whole entry): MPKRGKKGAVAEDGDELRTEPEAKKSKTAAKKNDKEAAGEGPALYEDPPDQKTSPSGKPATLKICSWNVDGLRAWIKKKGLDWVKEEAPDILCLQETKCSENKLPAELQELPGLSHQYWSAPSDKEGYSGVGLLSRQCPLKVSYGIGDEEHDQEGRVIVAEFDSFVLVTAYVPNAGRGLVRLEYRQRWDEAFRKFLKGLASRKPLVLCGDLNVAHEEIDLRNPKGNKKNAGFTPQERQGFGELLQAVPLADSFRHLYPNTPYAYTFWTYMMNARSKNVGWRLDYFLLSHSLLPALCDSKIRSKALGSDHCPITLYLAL
For the compound `C[C@]12CC[C@H]3[C@@H](CCC4=CC(=O)CC[C@@]43C)[C@@H]1CC[C@@H]2C(=O)COS(=O)(=O)c1ccc(Br)cc1`, the inhibition result was “inactive”.

(Values after ChEMBL document CHEMBL1156254, “4-Pregnen-21-ol-3,20-dione-21-(4-bromobenzenesulfonate) (NSC 88915) and related novel steroid derivatives as tyrosyl-DNA phosphodiesterase (Tdp1) inhibitors” (J Med Chem, 2009).)
